According to ChEMBL document CHEMBL3877299, “Imidazopyridine-fused [1,3]-diazepinones part 2: Structure-activity relationships and antiproliferative activity against melanoma cells” (Eur J Med Chem, 2017):

Columns and labels:
[1] = biological target: Mitogen-activated protein kinase kinase kinase kinase 4 (Homo sapiens, UniProt O95819); experiment: Inhibition of recombinant human HGK using Ulight-FLGFTYVAP as substrate after 90 mins by LANCE assay
[2] = Growth inhibition of human K562 cells assessed as cell growth at 10 uM incubated for 48 hrs by sulforhodamine B assay relative to control; assay type: functional; conditions: K562, 48 h, read-out: Activity
[3] = Growth inhibition of human SR cells assessed as cell growth at 10 uM incubated for 48 hrs by sulforhodamine B assay relative to control; assay type: functional; conditions: read-out: Activity
[4] = Growth inhibition of human A549/ATCC cells assessed as cell growth at 10 uM incubated for 48 hrs by sulforhodamine B assay relative to control; assay type: functional; conditions: A549, 48 h, read-out: Activity
[5] = Growth inhibition of human HOP62 cells assessed as cell growth at 10 uM incubated for 48 hrs by sulforhodamine B assay relative to control; assay type: functional; conditions: HOP-62, 48 h, read-out: Activity
[6] = Growth inhibition of human NCI-H522 cells assessed as cell growth at 10 uM incubated for 48 hrs by sulforhodamine B assay relative to control; assay type: functional; conditions: NCI-H522, 48 h, read-out: Activity
[7] = Growth inhibition of human COLO205 cells assessed as cell growth at 10 uM incubated for 48 hrs by sulforhodamine B assay relative to control; assay type: functional; conditions: COLO 205, 48 h, read-out: Activity
[8] = Growth inhibition of human HCT15 cells assessed as cell growth at 10 uM incubated for 48 hrs by sulforhodamine B assay relative to control; assay type: functional; conditions: HCT-15, 48 h, read-out: Activity
[9] = Growth inhibition of human SF268 cells assessed as cell growth at 10 uM incubated for 48 hrs by sulforhodamine B assay relative to control; assay type: functional; conditions: SF-268, 48 h, read-out: Activity
[10] = Growth inhibition of human SF539 cells assessed as cell growth at 10 uM incubated for 48 hrs by sulforhodamine B assay relative to control; assay type: functional; conditions: SF-539, 48 h, read-out: Activity
[11] = Growth inhibition of human SNB19 cells assessed as cell growth at 10 uM incubated for 48 hrs by sulforhodamine B assay relative to control; assay type: functional; conditions: SNB-19, 48 h, read-out: Activity
[12] = Growth inhibition of human SNB75 cells assessed as cell growth at 10 uM incubated for 48 hrs by sulforhodamine B assay relative to control; assay type: functional; conditions: SNB-75, 48 h, read-out: Activity
[13] = Growth inhibition of human LOXIMVI cells assessed as cell growth at 10 uM incubated for 48 hrs by sulforhodamine B assay relative to control; assay type: functional; conditions: LOX IMVI, read-out: Activity
[14] = Growth inhibition of human M14 cells assessed as cell growth at 10 uM incubated for 48 hrs by sulforhodamine B assay relative to control; assay type: functional; conditions: M14, 48 h, read-out: Activity
[15] = Growth inhibition of human MDA-MB-435 cells assessed as cell growth at 10 uM incubated for 48 hrs by sulforhodamine B assay relative to control; assay type: functional; conditions: MDA-MB-435, 48 h, read-out: Activity
[16] = Growth inhibition of human UACC257 cells assessed as cell growth at 10 uM incubated for 48 hrs by sulforhodamine B assay relative to control; assay type: functional; conditions: UACC-257, 48 h, read-out: Activity
[17] = Growth inhibition of human UACC62 cells assessed as cell growth at 10 uM incubated for 48 hrs by sulforhodamine B assay relative to control; assay type: functional; conditions: UACC-62, 48 h, read-out: Activity
[18] = Growth inhibition of human OVCAR4 cells assessed as cell growth at 10 uM incubated for 48 hrs by sulforhodamine B assay relative to control; assay type: functional; conditions: OVCAR-4, 48 h, read-out: Activity
[19] = Growth inhibition of human SKOV3 cells assessed as cell growth at 10 uM incubated for 48 hrs by sulforhodamine B assay relative to control; assay type: functional; conditions: SK-OV-3, 48 h, read-out: Activity
[20] = Growth inhibition of human ACHN cells assessed as cell growth at 10 uM incubated for 48 hrs by sulforhodamine B assay relative to control; assay type: functional; conditions: read-out: Activity
[21] = Growth inhibition of human RXF393 cells assessed as cell growth at 10 uM incubated for 48 hrs by sulforhodamine B assay relative to control; assay type: functional; conditions: RXF 393, 48 h, read-out: Activity
[22] = Growth inhibition of human PC3 cells assessed as cell growth at 10 uM incubated for 48 hrs by sulforhodamine B assay relative to control; assay type: functional; conditions: PC-3, 48 h, read-out: Activity
[23] = Growth inhibition of human DU145 cells assessed as cell growth at 10 uM incubated for 48 hrs by sulforhodamine B assay relative to control; assay type: functional; conditions: DU-145, 48 h, read-out: Activity
[24] = Growth inhibition of human MCF7 cells assessed as cell growth at 10 uM incubated for 48 hrs by sulforhodamine B assay relative to control; assay type: functional; conditions: MCF7, 48 h, read-out: Activity
[25] = Growth inhibition of human BT549 cells assessed as cell growth at 10 uM incubated for 48 hrs by sulforhodamine B assay relative to control; assay type: functional; conditions: BT-549, 48 h, read-out: Activity
[26] = Growth inhibition of human HOP92 cells assessed as cell growth at 10 uM incubated for 48 hrs by sulforhodamine B assay relative to control; assay type: functional; conditions: HOP-92, 48 h, read-out: Activity

Sequence of Mitogen-activated protein kinase kinase kinase kinase 4 (O95819 whole entry): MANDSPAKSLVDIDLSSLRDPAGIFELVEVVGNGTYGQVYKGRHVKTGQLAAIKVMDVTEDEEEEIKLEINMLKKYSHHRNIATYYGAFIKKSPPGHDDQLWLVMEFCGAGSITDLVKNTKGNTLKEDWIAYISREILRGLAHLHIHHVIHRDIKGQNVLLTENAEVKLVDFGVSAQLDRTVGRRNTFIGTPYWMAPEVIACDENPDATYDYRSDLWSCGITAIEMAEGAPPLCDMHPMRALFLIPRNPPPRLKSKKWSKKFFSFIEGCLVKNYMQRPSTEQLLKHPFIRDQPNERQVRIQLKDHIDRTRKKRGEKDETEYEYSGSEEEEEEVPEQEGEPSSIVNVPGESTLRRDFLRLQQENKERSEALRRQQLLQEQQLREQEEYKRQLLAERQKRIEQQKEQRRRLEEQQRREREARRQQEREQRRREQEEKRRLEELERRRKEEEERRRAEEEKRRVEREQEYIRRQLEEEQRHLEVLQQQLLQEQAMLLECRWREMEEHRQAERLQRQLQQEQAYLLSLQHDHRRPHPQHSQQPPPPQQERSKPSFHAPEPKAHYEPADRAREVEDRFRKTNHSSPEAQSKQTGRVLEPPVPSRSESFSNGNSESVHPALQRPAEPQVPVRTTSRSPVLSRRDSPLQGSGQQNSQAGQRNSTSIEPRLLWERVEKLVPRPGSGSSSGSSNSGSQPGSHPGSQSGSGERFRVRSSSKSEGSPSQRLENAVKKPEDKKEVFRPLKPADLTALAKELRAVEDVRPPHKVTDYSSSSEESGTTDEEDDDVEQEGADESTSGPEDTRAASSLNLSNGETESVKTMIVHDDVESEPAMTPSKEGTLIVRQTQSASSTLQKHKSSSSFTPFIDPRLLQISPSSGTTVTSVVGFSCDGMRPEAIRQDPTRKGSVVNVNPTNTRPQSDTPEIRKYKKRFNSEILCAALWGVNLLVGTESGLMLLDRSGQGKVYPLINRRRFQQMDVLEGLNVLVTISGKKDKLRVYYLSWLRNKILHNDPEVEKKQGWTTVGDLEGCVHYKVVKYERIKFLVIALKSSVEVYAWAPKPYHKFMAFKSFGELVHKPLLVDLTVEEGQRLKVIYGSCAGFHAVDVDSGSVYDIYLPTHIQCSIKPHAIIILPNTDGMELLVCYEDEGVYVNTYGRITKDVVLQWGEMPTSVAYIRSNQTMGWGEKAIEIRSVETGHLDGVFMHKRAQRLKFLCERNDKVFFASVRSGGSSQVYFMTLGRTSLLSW

Row | SMILES | growth at 10 µM [2] [%] | growth at 10 µM [3] [%] | growth at 10 µM [4] [%] | growth at 10 µM [5] [%] | growth at 10 µM [6] [%] | growth at 10 µM [7] [%] | growth at 10 µM [8] [%] | growth at 10 µM [9] [%] | growth at 10 µM [10] [%] | growth at 10 µM [11] [%] | growth at 10 µM [12] [%] | growth at 10 µM [13] [%] | growth at 10 µM [14] [%] | growth at 10 µM [15] [%] | growth at 10 µM [16] [%] | growth at 10 µM [17] [%] | growth at 10 µM [18] [%] | growth at 10 µM [19] [%] | growth at 10 µM [20] [%] | growth at 10 µM [21] [%] | further results
1 | CC(C)(C)OC[C@@H]1NC(c2ccc(Br)cc2)=Nc2nc3ccccn3c2C1=O | 25.2 | 35.4 | 51.6 | 54.5 | 33.4 | 62.6 | 44.1 | 74.3 | 75.8 | 76.5 | 77.4 | 58.7 | 46.4 | -13.8 | 62.3 | 53.6 | 82.3 | 64.3 | 75.3 | 61.6 | IC50 [1]: 5.6 µM; growth at 10 µM [22]: 53.4%; growth at 10 µM [23]: 82.7%; growth at 10 µM [24]: 27.8%; growth at 10 µM [25]: 72.5%
2 | C[C@@H]1NC(c2ccc(Cl)cc2)=Nc2nc3ccccn3c2C1=O | 70 | 46.7 | 85.8 | 73.3 | 66.3 | 91.8 | 77.6 | 87.3 | 84.7 | 93.2 | 92.5 | 88.2 | 91 | 32.9 | 80.7 | 78.6 | 109 | 75.5 | 88.3 | 97.9 | growth at 10 µM [22]: 90%; growth at 10 µM [23]: 100%; growth at 10 µM [24]: 69.2%; growth at 10 µM [25]: 93.6%
3 | C[C@@H]1NC(c2ccc(Cl)cc2Cl)=Nc2nc3ccccn3c2C1=O | 23.6 | 33 | 40.6 | 52.6 | 28.9 | 22.3 | 35.1 | 58.9 | 53 | 60.8 | 58.7 | 51.3 | 31.1 | -16.6 | 52.4 | 40.5 | 89.5 | 50.1 | 60.2 | 80.2 | IC50 [1]: > 100 µM; growth at 10 µM [26]: 55.9%; growth at 10 µM [22]: 39.1%; growth at 10 µM [23]: 64.8%; growth at 10 µM [24]: 16.8%; growth at 10 µM [25]: 55.6%
4 | C[C@@H]1NC(c2ccc3ccccc3c2)=Nc2nc3ccccn3c2C1=O | 27.6 | 30.5 | 39.5 | 36.7 | 29.4 | 22.8 | 33.8 | 58 | 37.2 | 53.3 | 37.1 | 48.5 | 19.8 | -24.6 | 40.9 | 48.8 | 74.5 | 40.5 | 55.4 | 49.9 | growth at 10 µM [22]: 52%; growth at 10 µM [23]: 73.3%; growth at 10 µM [24]: 25.2%; growth at 10 µM [25]: 35.1%
